Data set [1] in a line: Test n° 5: in vivo bioavailability evaluation after oral administration. To be noted: rat, 10 mg/kg.
Method: In Vivo Bioavailability Evaluation
Aim of the study is to determine the pharmacokinetics and the oral bioavailability of the instant compounds in rats.
Species/strain/sex: rat/Lewis/male
No. formulations: 1 oral; 1 intravenous
No. animals/formulation: 3+2 controls (+an ulterior rat treated with the iv formulation); total 9
Dosages: iv: 1 mg salt/kg; oral: 10 mg salt/kg
Vehicles: iv: a solution at the conc. of 5 mg/ml in PEG 400/Tween 80 (6:1 v:v) was prepared, then diluted with dextrose at the final concentration of 0.5 mg/ml; oral: a solution at the concentration of 5 mg/ml in Cremophor ELP/EtOH abs (6.5:3.5 v:v) was prepared, then diluted with saline at the final concentration of 1 mg/ml
Experimental: Three cannulated rats/formulation were treated. One rat/formulation was only treated with the vehicle, as basal sample. The intravenous administration was given into the caudal vein as bolus; the oral administration by gastric gavage as solution. […] Plasma was immediately obtained by centrifugation (10000 rpm for 3 min) and stored in labelled tubes at -30° C. till analysis.
Analytical assay: the extraction of the compounds was performed by protein precipitation by adding 100 mcl of acetonitrile to 25 mcl of plasma. The concentrations of the compounds (as free bases) in plasma were determined by LC-MS method. Column: APEX CN RP 5 mc, 10×4 mm (Jones chromatography); mobil phase: 70% acetonitrile/30% 1 mM ammonium formate +0.01% triethylamine adjusted to pH 2.0 with formic acid; flow rate: 1 ml/min; injection volume: 10 mcL; oven temperature: 45° C.; MS detection by APCI using MRM positive ion; MRM transition: 330 m/z>239 m/z, retention time: 1.4 min; LLOQ: 5.03 ng/ml; ULOQ: 10060 ng/ml.
In data set [2] the test system is Delayed-Type Hypersensitivity. The data set can be described thus: Test n° 4: in vivo DTH (Delayed-Type Hypersensitivity) assay, SRBC-induced footpad thickness increase. Conditions: Mus musculus, read-out: DTH ED30 os. More on the design: species or system female C57 B1/6 mice.
Method: Comparative in Vivo Activity Evaluation by DTH Assay
The immunosuppressive activity of the compounds of the invention was evaluated in vivo by DTH (Delayed-Type Hypersensitivity) assay. According to the test, sheep red blood cells (SRBC) (1×10^5 cells) suspended in 500 mcL saline, were injected i.v. into the tail vein of female C57 B1/6 mice (8-9 week old). Five days later 1×10^8 SRBC suspended in 50 mcL saline were injected into the left hind footpad. The increase in footpad thickness was measured with a dial micrometer 24 h after challenge. The test compounds were given daily for six days at different doses starting on the day of priming.
In data set [3] the test system is Th2 murine cells D10-G4.1 (ATCC TIB 224). The experiment in a line: Inhibition of IL-2 proliferation induced activity (D10 cells, 3H-TdR uptake). Format: cell-based. As for the experimental part: Inhibition of IL-2 Proliferation Induced Activity
The Th2 murine cells D10-G4.1 (ATCC TIB 224) are IL-2 dependent for their growth. They are cultured in complete RPMI 1640 medium enriched with rhIL-2 (6 ng/ml) and ConA (6 ng/ml).
For testing the inhibitory effects of the compounds of the invention on IL-2 activity, D 10 cells are washed twice with complete medium, resuspended at 10^5 cells/ml in the same medium and triplicately distributed (10^4 cells/well) in flat bottomed 96 well plates. […] and […] at different concentrations are simultaneously added to the cells. The cultures are then incubated at 37° C. in a humidified 5% CO2 incubator for 48 h, the last 18 h in the presence of 0.2 μCi of ^3 H-TdR.
Uptake of 3H-TdR in the cells (cpm) is taken as a measure of cell proliferation.

The mark [4] stands for this setting: oral (os), daily for six days, dose able to reduce by 30% the footpad thickness increase compared to controls, 24 h after challenge, mice.

Where a name gives a salt, the structure may show the parent alone. Read-outs that look alike come from different tables or passages of the source.

For orientation: bioavailability means the share of a dose that reaches the circulation, judged against a reference dose that is usually intravenous. As to `CCCCCCCCCCCC1=NC(=Cc2[nH]c(-c3cc4ccccc4[nH]3)cc2OC)C=C1.Cl` [PNU 166823, 2-(1H-indol-2-yl)-4-methoxy-5-[(5-undecyl-2H-pyrrol-2-ylidene)methyl]-1H-pyrrole, hydrochloride], the bioavailability in data set [1] (in vivo) was 5%. For the same molecule, in data set [2] (24 h), the ED30 worked out at 8.8 mg/kg.

The inhibition is the share of the control response that was lost under treatment. `CCCCCC1=NC(=Cc2[nH]c(-c3cc4ccccc4[nH]3)cc2OC)C=C1.Cl` [PNU 190192, 2-(1H-indol-2-yl)-4-methoxy-5-[(5-pentyl-2H-pyrrol-2-ylidene)methyl]-1H-pyrrole, hydrochloride] yielded a bioavailability in data set [1] (plasma) of 38%. In addition, the ED30 in data set [2] (setting [4]) was found to be 7.1 mg/kg. Further, the 3HTdR uptake is listed as 57325 (1280) cpm in data set [3] (10 ng/ml, mean cpm from triplicate wells (SE), vehicle 61231 (1193)); 29681 (1528) cpm in data set [3] (30 ng/ml, mean cpm from triplicate wells (SE), vehicle 61231 (1193)); 1388 (62) cpm in data set [3] (0.1 ug/mL). In addition, in data set [3] (Mus musculus, 10 ng/ml, 48 h, read-out: % inhibition vs vehicle), the inhibition at 0.01 µg/mL is 6%. In addition, the inhibition at 0.03 µg/mL in data set [3] (Mus musculus, 30 ng/ml, 48 h, read-out: % inhibition vs vehicle) amounted to 52%. The inhibition at 0.1 µg/mL in data set [3] (Mus musculus, 100 ng/ml, 48 h, read-out: % inhibition vs vehicle) was determined as 98%.

For the molecule `COc1cc(-c2cc3ccccc3[nH]2)[nH]c1C=C1C=CC(C)=N1.Cl` [PNU 190364, 2-(1H-indol-2-yl)-4-methoxy-5-[(5-methyl-2H-pyrrol-2-ylidene)methyl]-1H-pyrrole, hydrochloride], in data set [1] (plasma), the bioavailability stood at 82%. In addition, the ED30 in data set [2] (setting [4]) is 6.6 mg/kg.

In the case of `CC1=NC(=Cc2[nH]c(-c3cc4ccccc4[nH]3)cc2OCc2ccccc2)C=C1` [PNU 190537, 2-(1H-indol-2-yl)-4-benzyloxy-5-[(5-methyl-2H-pyrrol-2-ylidene)methyl]-1H-pyrrole, hydrochloride], in data set [1] (plasma), the bioavailability was 20%. For the same molecule, the ED30 in data set [2] (setting [4]) is 11.9 mg/kg.

Values taken from patent US6071947A, “Indolyl-pyrrolydenemethylpyrrole derivatives and process for their preparation” (Pharmacia & Upjohn S.p.A., priority 1997, dated 2000).
